The text below walks through data of patent US20190375708A1 (VenatoRx Pharmaceuticals, Inc., priority 2018, published 2019).

Read-outs that look alike come from different tables or passages of the source.

For one series, the system named is HepG2 cells. Kind of series: In vitro cytotoxicity assay (MTT cell viability) in HepG2 cells. Format: cell-based, human. In outline:
(§1)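 Using MTT conversion as the viability measure, HepG2 cells were incubated with compounds for 7 days (30 μM to 1.0 nM). Absorbance at 492 nm was normalized to vehicle and fitted to give CC50.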

For series [1], the system named is HBV replication in HepAD38 cells. Kind of series: Anti-HBV replication assay in HepAD38 cells (QPCR of extracellular HBV DNA). Type of series: cell-based, HBV (genotype D, serotype ayw). Particulars: 7 days incubation, extracellular HBV DNA by QPCR, read-out: Anti-HBV EC50. In outline:
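HepAD38 cells (HepG2 carrying tet-repressible HBV genotype D genome) induced by tetracycline withdrawal, treated 7 days at 37 °C with compound ([…], 1-log10 dilutions). Extracellular HBV DNA quantified by QPCR against a standard curve, normalised to DMSO; EC50 from 4-parameter fit.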

A further series concerns HBV. The settings on record: Phase 1b clinical trial, 600 mg bid dosing for 29 days; cited from earlier work.
The nature of series [2]: In vitro cytotoxicity assay (MTT cell viability) in HepG2 cells. Particulars: human. Format: cell-based, human. The essentials: as §1
Where [3] appears, read: HepG2 cells, MTT cell viability, 7-day incubation, tested 30 μM to 1.0 nM, read-out: HepG2 CC50.

Consider `Cc1c(C(=O)Nc2ccc(F)nc2)c(C)n(C)c1C(=O)C(=O)N[C@]12C[C@@H]3C[C@@H](C[C@H]1C3)C2` [Example 19, N-(6-fluoropyridin-3-yl)-5-(2-(((2R,3as,5S,6as)-hexahydro-2,5-methanopentalen-3a(1H)-yl)amino)-2-oxoacetyl)-1,2,4-trimethyl-1H-pyrrole-3-carboxamide], for which the CC50 in the series with HepG2 cells (setting [3]) was in the range of 5000 to 30000 nM. Moreover, the concentration for a half-maximal effect (EC50) in series [1] was below 50 nM.

Regarding `O=C(Nc1cc(F)c(F)c(F)c1)c1ccc(F)c(S(=O)(=O)N2CCC(O)CC2)c1` [NVR 3-778], in the series on HBV, the “reduction in HBV DNA” value is given as −1.7 log 10.

As to `Cc1c(C(=O)Nc2ccc(F)nc2)c(C)n(C)c1C(=O)C(=O)NC12C[C@@H]3C[C@@H](CC(O)(C3)C1)C2` [Example 16, N-(6-fluoropyridin-3-yl)-5-(2-(((1r,3s,5R,7S)-3-hydroxyadamantan-1-yl)amino)-2-oxoacetyl)-1,2,4-trimethyl-1H-pyrrole-3-carboxamide], the 50% cytotoxic concentration (CC50) with HepG2 cells (setting [3]) was in the range of 5000 to 30000 nM. Further, in series [1], the EC50 was in the range of 50 to 499 nM.

“(S)-2-chloro-N-(4-fluoro-3- methylphenyl)-5-(2-((1- hydroxybutan-2-yl)amino)-2- oxoacetyl)-14-dimethyl-1H- pyrrole-3-carboxamide [Example 389]”: in the series on HepG2 cells (setting [3]), the CC50 lay in the range of 5000 to 30000 nM. For the same molecule, the EC50 in series [1] is above 1000 nM.

“N-(4-fluoro-3-methylphenyl)-1,2,4-trimethyl-5-(2-(((1s,4s)-4-morpholinocyclohexyl)amino)-2-oxoacetyl)-1H-pyrrole-3-carboxamide [Example 265]”: the cytotoxic concentration (CC50) in the series on HepG2 cells (setting [3]) is above 30000 nM. Also, the EC50 in series [1] lay within 50 to 499 nM.

As to `Cc1cc(NC(=O)c2c(C)c(C(=O)C(=O)N[C@@H]3[C@@H]4C[C@@H]5C[C@H]3C[C@@](O)(C5)C4)n(C)c2C)ccc1F` [Example 74, N-(4-fluoro-3-methylphenyl)-5-(2-(((1R,2s,3S,5s,7s)-5-hydroxyadamantan-2-yl)amino)-2-oxoacetyl)-1,2,4-trimethyl-1H-pyrrole-3-carboxamide], in the series with HepG2 cells (setting [3]), the CC50 was above 30000 nM. Further, the EC50 in series [1] was below 50 nM.

With `Cc1cc(NC(=O)c2c(Cl)c(C(=O)C(=O)NC3(CO)CC3)n3c2CCCC3)ccc1F` [Example 491, 2-chloro-N-(4-fluoro-3-methylphenyl)-3-(2-((1-(hydroxymethyl)cyclopropyrl)amino)-2-oxoacetyl)-5,6,7,8-tetrahydroindolizine-1-carboxamide], the half-maximal cytotoxic concentration (CC50) with HepG2 cells was above 30000 nM. For the same molecule, in series [1], the EC50 was below 50 nM.

On to “(S)-4-chloro-N-(4-fluoro-3- methylphenyl)-5-(2-((1- hydroxybutan-2-yl)amino0-2- oxoacetyl)-1,2-dimethyl-1H- pyrrole-3-carboxamide [Example 368]”, for which, in the series with HepG2 cells (setting [3]), the CC50 is above 30000 nM. Besides, the EC50 in series [1] lay in the range of 50 to 499 nM.

With `Cc1cc(NC(=O)c2c(C)c(C(=O)C3=Nc4ccccc4B(O)O3)n(C)c2C)ccc1F` [Example 256, N-(4-fluoro-3-methylphenyl)-5-(1-hydroxy-1H-enxo[c][1,5,2]oxazaborinine-3-carbonyl)-1,2,4-trimethyl-1H-pyrrole-3-carboxamide], the CC50 in the series on HepG2 cells (setting [3]) lay in the range of 5000 to 30000 nM. In addition, in series [1], the EC50 is 50 to 499 nM.

In turn, `Cc1cc(NC(=O)c2c(C)c(C(=O)C(=O)NC34CC5CC(CC(O)(C5)C3)C4)n(C)c2C)cnc1F` [Example 114, N-(6-fluoro-5-methylpyridin-3-yl)-5-(2-(((1r,3s,5R,7S)-3-hydroxyadamantan-1-yl)amino)-2-oxoacetyl)-1,2,4-trimethyl-1H-pyrrole-3-carboxamide] registered a 50% cytotoxic concentration (CC50) at 7 days in series [2] above 30000 nM. The concentration giving a half-maximal response (EC50) in series [1] (Hepatitis B virus, 168 h) was below 50 nM.

Take `O=C(NC1(CO)CCC1)C(=O)c1c(Cl)c(C(=O)Nc2ccc(F)c(F)c2)c2n1CCC2` [Example 558, 6-chloro-N-(3,4-difluorophenyl)-5-(2-((1-(hydroxymethyl)cyclobutyl)amino)-2-oxoacetyl)-2,3-dihydro-1H-pyrrolizine-7-carboxamide]: the CC50 at 7 days in series [2] was above 30000 nM. The 50% effective concentration (EC50) in series [1] (Hepatitis B virus, 168 h) is below 50 nM.

Consider `Cc1cc(NC(=O)c2cc(C(=O)C(=O)NC(C)(C)C(F)(F)F)n3c2CCCC3)ccc1F` [Example 409, N-(4-fluoro-3-methylphenyl)-3-(2-oxo-2-((1,1,1-trifluoro-2-methylpropan-2-yl)amino)acetyl)-5,6,7,8-tetrahydroindolizine-1-carboxamide], for which the CC50 at 7 days in series [2] was above 30000 nM. Also, in series [1] (Hepatitis B virus, 168 h), the half-maximal effective concentration (EC50) lay in the range of 50 to 499 nM.

Molecule `Cc1cc(NC(=O)c2c(C)c(C(=O)C(=O)Nc3ccc(F)c(F)c3)n(C)c2C)cnc1F` [Example 341, 5-(2-((3,4-difluorophenyl)amino)-2-oxoacetyl)-N-(5-fluoro-5-methylpyridin-3-yl)-1,2,4-trimethyl-1H-pyrrole-3-carboxamide] yielded a CC50 at 7 days in series [2] above 30000 nM. In addition, the EC50 in series [1] (Hepatitis B virus, 168 h) lay in the range of 50 to 499 nM.

In series [2], `Cc1cc(NC(=O)c2c(C)c(C(=O)C(=O)N[C@H]3CC[C@H](N)CC3)n(C)c2C)ccc1F` [Example 232, 5-(2-(((1r,4r)-4-aminocyclohexyl)amino)-2-oxoacetyl)-N-(4-fluoro-3-methylphenyl)-1,2,4-trimethyl-1H-pyrrole-3-carboxamide] yielded a CC50 at 7 days above 30000 nM. Moreover, the concentration giving a half-maximal response (EC50) in series [1] (Hepatitis B virus, 168 h) was below 50 nM.

`Cc1cc(NC(=O)c2c(C)c(C(=O)C(=O)N[C@H]3CNC(=O)C34CC4)n(C)c2C)ccc1F` [Example 710, (R)-N-(4-fluoro-3-methylphenyl)-1,2,4-trimethyl-5-(2-oxo-2-((4-oxo-5-azaspiro[2.4]heptan-7-yl)amino)acetyl)-1H-pyrrole-3-carboxamide] displayed a cytotoxic concentration (CC50) at 7 days in series [2] above 30000 nM. Also, the EC50 in series [1] (Hepatitis B virus, 168 h) was below 50 nM.

`Cc1cc(NC(=O)c2c(C)c(C(=O)C(=O)N[C@]3(C)CC[C@@H](O)CC3)n(C)c2C)ccc1F` [Example 273, N-(4-fluoro-3-methylphenyl)-5-(2-(((1r,4r)-4-hydroxy-1-methylcyclohexyl)amino)-2-oxoacetyl)-1,2,4-trimethyl-1H-pyrrole-3-carboxamide] came in with a CC50 at 7 days in series [2] above 30000 nM. The 50% effective concentration (EC50) in series [1] (Hepatitis B virus, 168 h) was below 50 nM.

Turning to `Cc1cc(NC(=O)c2c(C)c(C(=O)C(=O)NC3CCOCC3(C)C)n(C)c2C)ccc1F` (stereo not drawn) [Example 281], the CC50 at 7 days in series [2] was 5000 to 30000 nM. In addition, the EC50 in series [1] (Hepatitis B virus, 168 h) was below 50 nM.

On to `O=C(NC1(CO)CCC1)C(=O)c1c(Cl)c(C(=O)Nc2ccc(F)c(F)c2)c2n1CCOC2` [Example 584, 7-chloro-N-(3,4-difluorophenyl)-6-(2-((1-(hydroxymethyl)cyclobutyl)amino)-2-oxoacetyl)-3,4-dihydro-1H-pyrrolo[2,1-c][1,4]oxazine-8-carboxamide], for which the CC50 at 7 days in series [2] lay in the range of 5000 to 30000 nM. Besides, the concentration for a half-maximal effect (EC50) in series [1] (Hepatitis B virus, 168 h) is below 50 nM.

`Cc1cc(NC(=O)c2c(C)c(C(=O)C(=O)NC3(C)CCN(C(=O)c4cnn5cccnc45)CC3)n(C)c2C)ccc1F` [Example 719, N-(4-fluoro-3-methylphenyl)-1,2,4-trimethyl-5-(2-((4-methyl-1-(pyrazolo[1,5-a]pyrimidine-3-carbonyl)piperidin-4-yl)amino)-2-oxoacetyl)-1H-pyrrole-3-carboxamide] displayed a CC50 at 7 days in series [2] above 30000 nM. For the same molecule, the 50% effective concentration (EC50) in series [1] (Hepatitis B virus, 168 h) was below 50 nM.

In series [2], `Cc1cc(NC(=O)c2c(C)c(C(=O)C(=O)N[C@]3(C)CC[C@H](O)CC3)n3c2CCCC3)ccc1F` [Example 737, N-(4-fluoro-3-methylphenyl)-3-(2-(((1s,4s)-4-hydroxy-1-methylcyclohexyl)amino)-2-oxoacetyl)-2-methyl-5,6,7,8-tetrahydroindolizine-1-carboxamide] displayed a 50% cytotoxic concentration (CC50) at 7 days above 30000 nM. The 50% effective concentration (EC50) in series [1] (Hepatitis B virus, 168 h) was below 50 nM.

Usually CC50 stands for the concentration that lowers cell viability or growth by half. By EC50 is commonly meant the concentration at which the effect is half-maximal.
